Reference: ChEMBL document CHEMBL6114991, “Design, synthesis, and biological evaluation of novel quinoline carboxylic acid based styryl/alkyne hybrid molecule as a potent anti-adipogenic and antidyslipidemic agent via activation of Wnt/β-catenin pathway” (Eur J Med Chem, 2025)
Calls of active or inactive are those of the source. The rule behind the calls is not given here.

Experiments:
3T3-L1 [1] = experiment: Anti-adipogenic activity in mouse 3T3-L1 cells assessed as reduction in lipid accumulation at 10 uM; type: functional
3T3-L1 [2] = experiment: Inhibition of adipogenesis in mouse 3T3-L1 cells assessed as downregulation of FABP4 expression at 10 uM measured at upto 3 days by immunoblotting analysis; type: functional, cell-based; details: time <= 3.0 day
3T3-L1 [3] = experiment: Induction of cell cycle arrest in mouse 3T3-L1 cells assessed as reduction in percentage of cells at G1 phase at 10 uM incubated for 16 to 24 hrs by flow cytometry analysis; type: functional, cell-based; details: time 16-24 hrs
3T3-L1 [4] = experiment: Inhibition of adipogenesis in mouse 3T3-L1 cells assessed as downregulation of CEBPalpha expression at 10 uM measured at upto 5 days by immunoblotting analysis; type: functional, cell-based; details: time <= 5.0 day
3T3-L1 [5] = experiment: […] of Wnt/beta-catenin signalling in mouse 3T3-L1 cells assessed as increase in beta-catenin level at 10 uM by immunoblotting analysis; type: cell-based
3T3-L1 [6] = experiment: Anti-adipogenic activity in mouse 3T3-L1 cells assessed as increase in GATA2 mRNA expression by measuring fold change at 10 uM incubated for 16 to 24 hrs; type: functional; details: time 16-24 hrs
3T3-L1 [7] = experiment: Cytotoxicity against mouse 3T3-L1 cells assessed as cell viability at 20 uM incubated for 48 hrs by MTT assay; type: toxicity, cell-based; details: 3t3-l1, 48 h
3T3-L1 [8] = experiment: Inhibition of adipogenesis in mouse 3T3-L1 cells assessed as downregulation of FASN expression at 10 uM measured at upto 5 days by immunoblotting analysis; type: functional, cell-based; details: time <= 5.0 day
3T3-L1 [9] = experiment: Cytotoxicity against mouse 3T3-L1 cells assessed as cell viability upto 100 uM incubated for 48 hrs by MTT assay; type: toxicity, cell-based; details: 3t3-l1, 48 h
3T3-L1 [10] = experiment: Anti-adipogenic activity in mouse 3T3-L1 cells assessed as reduction in lipid accumulation at 10 uM in presence of FH535 by microscopic analysis; type: functional, cell-based
[11] = Volume of distribution in Golden Syrian hamster at 100 mg/kg, po measured upto 24 hrs by LC-MS/MS analysis; type: ADME, organism-based, Mesocricetus auratus; details: in vivo
3T3-L1 [12] = experiment: Anti-adipogenic activity in mouse 3T3-L1 cells at 20 uM relative to control; type: functional; details: time 72 hrs
3T3-L1 [13] = experiment: Inhibition of adipogenesis in mouse 3T3-L1 cells assessed as downregulation of FABP4 expression at 10 uM measured at upto 7 days by immunoblotting analysis; type: functional, cell-based; details: time <= 7.0 day
3T3-L1 [14] = experiment: Inhibition of adipogenesis in mouse 3T3-L1 cells assessed as downregulation of CEBPalpha expression at 10 uM measured at upto 7 days by immunoblotting analysis; type: functional, cell-based; details: time <= 7.0 day
3T3-L1 [15] = experiment: Inhibition of adipogenesis in mouse 3T3-L1 cells assessed as downregulation of CEBPalpha expression at 10 uM measured at upto 3 days by immunoblotting analysis; type: functional, cell-based; details: time <= 3.0 day
3T3-L1 [16] = experiment: Inhibition of adipogenesis in mouse 3T3-L1 cells assessed as downregulation of PPARgamma expression at 10 uM measured at upto 5 days by immunoblotting analysis; type: functional, cell-based; details: time <= 5.0 day
3T3-L1 [17] = experiment: Induction of cell cycle arrest in mouse 3T3-L1 cells assessed as reduction in CDK4 level at 10 uM incubated for 16 to 24 hrs by immunoblotting analysis; type: functional, cell-based; details: time 16-24 hrs
3T3-L1 [18] = experiment: Anti-adipogenic activity in mouse 3T3-L1 cells assessed as increase in beta-catenin mRNA expression at 10 uM incubated for 16 to 24 hrs; type: functional, cell-based; details: time 16-24 hrs
3T3-L1 [19] = experiment: Anti-adipogenic activity in mouse 3T3-L1 cells assessed as change in lipid content at 10 uM measured at 3 to 5 days; type: functional, cell-based; details: time 3-5 day
Syrian golden hamster [20] = experiment: Anti-dyslipidemic activity in HFD-induced Golden Syrian hamster model assessed as decrease in CEBPalpha level at 100 mg/kg, po administered for 7 days by Western blot analysis; type: functional, organism-based; details: Mesocricetus auratus, time 7.0 day
3T3-L1 [21] = experiment: Anti-adipogenic activity in mouse 3T3-L1 cells assessed as suppression of adipogenesis at 1 uM by oil red O staining based analysis; type: functional, cell-based
3T3-L1 [22] = experiment: Induction of cell cycle arrest in mouse 3T3-L1 cells assessed as reduction in CDK2 level at 10 uM incubated for 16 to 24 hrs by immunoblotting analysis; type: functional, cell-based; details: time 16-24 hrs
[23] = Toxicity in Golden Syrian hamster assessed as body weight gain at 100 mg/kg, po administered for 7 days; type: organism-based, Mesocricetus auratus; details: in vivo, 168 h, time 7 day
3T3-L1 [24] = experiment: Anti-adipogenic activity in mouse 3T3-L1 cells assessed as change in lipid content at 10 uM measured at 5 to 7 days; type: functional, cell-based; details: time 5-7 day
3T3-L1 [25] = experiment: Inhibition of adipogenesis in mouse 3T3-L1 cells assessed as downregulation of PPARgamma expression at 10 uM measured at upto 3 days by immunoblotting analysis; type: functional, cell-based; details: time <= 3.0 day
Syrian golden hamster [26] = experiment: Anti-dyslipidemic activity in HFD-induced Golden Syrian hamster model assessed as decrease in PPARgamma level at 100 mg/kg, po administered for 7 days by Western blot analysis; type: functional, organism-based; details: Mesocricetus auratus, time 7.0 day
[27] = Toxicity in Golden Syrian hamster assessed as reduction in adipocyte hypertrophy at 100 mg/kg, po administered for 7 days; type: organism-based, Mesocricetus auratus; details: in vivo, 168 h, time 7 day
3T3-L1 [28] = experiment: […] of Wnt/beta-catenin signalling in mouse 3T3-L1 cells assessed as increase in GSK3beta level at 10 uM by immunoblotting analysis; type: cell-based
3T3-L1 [29] = experiment: Cytotoxicity against mouse 3T3-L1 cells assessed as cell viability at 10 uM incubated for 48 hrs by MTT assay; type: toxicity, cell-based; details: 3t3-l1, 48 h
3T3-L1 [30] = experiment: Inhibition of adipogenesis in mouse 3T3-L1 cells assessed as downregulation of PPARgamma expression at 10 uM measured at upto 7 days by immunoblotting analysis; type: functional, cell-based; details: time <= 7.0 day
[31] = AUC in Golden Syrian hamster at 100 mg/kg, po measured upto 24 hrs by LC-MS/MS analysis; type: ADME, organism-based, Mesocricetus auratus; details: in vivo
[32] = Toxicity in Golden Syrian hamster assessed as reduction in LDL level in serum at 100 mg/kg, po administered for 7 days; type: organism-based, Mesocricetus auratus; details: in vivo, 168 h, time 7 day
3T3-L1 [33] = experiment: Anti-adipogenic activity in mouse 3T3-L1 cells assessed as reduction in lipid accumulation at 10 uM measured at upto 5 days; type: functional, cell-based; details: time <= 5.0 day
3T3-L1 [34] = experiment: Anti-adipogenic activity in mouse 3T3-L1 cells assessed as reduction in lipid accumulation at 10 uM measured at upto 3 days; type: functional, cell-based; details: time <= 3.0 day
[35] = MRT in Golden Syrian hamster at 100 mg/kg, po measured upto 24 hrs by LC-MS/MS analysis; type: ADME, organism-based, Mesocricetus auratus; details: in vivo
[36] = Toxicity in Golden Syrian hamster assessed as reduction in TG level in serum at 100 mg/kg, po administered for 7 days; type: organism-based, Mesocricetus auratus; details: in vivo, 168 h, time 7 day
[37] = Toxicity in Golden Syrian hamster assessed as reduction in liver weight at 100 mg/kg, po administered for 7 days; type: organism-based, Mesocricetus auratus; details: in vivo, 168 h, time 7 day
3T3-L1 [38] = experiment: Anti-adipogenic activity in mouse 3T3-L1 cells assessed as reduction in lipid accumulation at 10 uM measured at upto 7 days; type: functional, cell-based; details: time <= 7.0 day
3T3-L1 [39] = experiment: Cytotoxicity against mouse 3T3-L1 cells assessed as cell viability at 30 uM incubated for 48 hrs by MTT assay; type: toxicity, cell-based; details: 3t3-l1, 48 h
3T3-L1 [40] = experiment: Anti-adipogenic activity in mouse 3T3-L1 cells assessed as change in lipid content at 10 uM measured at 3 to 7 days; type: functional, cell-based; details: time 3-7 day
[41] = Clearance in Golden Syrian hamster at 100 mg/kg, po measured upto 24 hrs by LC-MS/MS analysis; type: ADME, organism-based, Mesocricetus auratus; details: in vivo

Vd [11]: 14.79 L/kg
AUC at 24 h [31]: 35700 ng·h/mL
MRT [35]: 2.89 h
CL/F [41]: 46.8 mL/min/kg
SMILES: Cc1ccc(/C=C/c2ccc(-c3cc(C(=O)O)c4cc(F)ccc4n3)cc2)cc1
inhibition at 10 µM (3T3-L1 [1]): ~50%
inhibition (3T3-L1 [2]): Active
Activity (3T3-L1 [3]): Active
inhibition (3T3-L1 [4]): Active
inhibition (3T3-L1 [5]): Active
fold change (FC) (3T3-L1 [6]): 10
Activity (3T3-L1 [7]): Non-toxic
inhibition (3T3-L1 [8]): Active
Activity (3T3-L1 [9]): Toxic
Activity (3T3-L1 [10]): Active
Activity (3T3-L1 [12]): 64%
inhibition (3T3-L1 [13]): Active
inhibition (3T3-L1 [14]): Active
inhibition (3T3-L1 [15]): Active
inhibition (3T3-L1 [16]): Active
Activity (3T3-L1 [17]): Active
Activity (3T3-L1 [18]): Active
Activity (3T3-L1 [19]): Active
Activity (Syrian golden hamster [20]): Active
Activity (3T3-L1 [21]): Active
Activity (3T3-L1 [22]): Active
Activity [23]: Non-toxic
Activity (3T3-L1 [24]): Active
inhibition (3T3-L1 [25]): Active
Activity (Syrian golden hamster [26]): Active
Activity [27]: Non-toxic
inhibition (3T3-L1 [28]): Active
Activity (3T3-L1 [29]): Non-toxic
inhibition (3T3-L1 [30]): Active
Activity [32]: Non-toxic
Activity (3T3-L1 [33]): Active
Activity (3T3-L1 [34]): Active
Activity [36]: Non-toxic
Activity [37]: Non-toxic
Activity (3T3-L1 [38]): Active
Activity (3T3-L1 [39]): Toxic
Activity (3T3-L1 [40]): Active
